Source: article PMC12472494, “Anticonvulsant Potential of 1-Aryl-6,7-dimethoxy-1,2,3,4-tetrahydroisoquinolines: Insights from Strychnine and Nicotine Models in In Vivo and In Silico Studies” (Pharmaceuticals, 2025)
Where “and” joins values, the source holds several entries; their conditions need not be identical. Equal entries are not always repeated. Entries after “also recorded” stand apart in the source; their conditions may differ.

Tests used:
[1] = design: method as in PMID 36677539; conditions: per os; cited from earlier work
[2] = system: strychnine-induced seizures; assay: Strychnine-induced seizure model; assay type: in vivo, mice; conditions: for responders at 1 mg/kg: Mus musculus, read-out: Survival Rate; for responders at 1 mg/kg / Duration of Tremor and Seizures / Latency to Tremor and Seizure Onset: oral dose 1.0 mg/kg 60 min before strychnine 1.5 mg/kg s.c., N = 10; for Duration of Tremor and Seizures / Latency to Tremor and Seizure Onset: mean ± SD; for survival rate of strychnine-poisoned animals: dose not given
Description: (§1) The anticonvulsant effects of the examined substances were studied in male white mice weighing 18–22 g, divided into the following groups: control (including the strychnine and nicotine groups), carbamazepine group, Convulex group, and experimental groups (one for each tested substance). Simple randomization (“heads or tails” coin toss) was used to assign animals to groups. Each group contained 10 animals. Healthy animals were included in the experiments after a 14-day quarantine period. No animals were excluded from the study. Convulsant agents were administered subcutaneously at doses of 10.0 mg/kg for nicotine (Sigma–Aldrich, Saint Louis, MO, USA) and 1.5 mg/kg for strychnine (Sigma–Aldrich, Saint Louis, MO, USA), 60 min after the oral administration of the test substances at doses ranging from 0.1 to 10 mg/kg. The onset time, duration of tremors and seizures, and survival rate of the animals were recorded. Carbamazepine (Darnitsa, Kiev, Ukraine) at doses of 5.0–10.0 mg/kg and Convulex (valproate) (Gerot Pharmazeutika GmbH, Vienna, Austria) at doses of 75.0–100.0 mg/kg (based on the therapeutic anticonvulsant dose) were used as reference drugs.
(§2) Data were presented as mean ± SD for different groups. Statistical analysis was performed using OriginPro 9.0 (MicroCal Software, Northampton, MA, USA), with p < 0.05 considered statistically significant.

[3] = system: tremorogenic and convulsive actions of nicotine; assay: Nicotine-induced tremor and seizure model; assay type: in vivo, mice; conditions: for responders at 1 mg/kg: Mus musculus, po, read-out: Survival Rate; for survival rate of the animals increased to: at low doses (0.1–5 mg/kg); for activity against tremorogenic and convulsive actions of nicotine versus reference drugs (in words): doses of 0.1–5 mg/kg; for Duration of Seizures / Latency to Seizure Onset: oral dose 1.0 mg/kg 60 min before nicotine 10 mg/kg s.c., mean ± SD, N = 10
Description: as §1, §2

Structure (SMILES) | LD50 [1] | responders at 1 mg/kg [2] | Duration of Tremor and Seizures [2] | Latency to Tremor and Seizure Onset [2] | responders at 1 mg/kg [3] | survival rate of the animals increased to [3] | activity against tremorogenic and convulsive actions of nicotine versus reference drugs (in words) [3] | Duration of Seizures [3] | Latency to Seizure Onset [3] | survival rate of strychnine-poisoned animals [2] | effect on the duration of the seizures ([2]; doses of 1–10 mg/kg) | increase of animal survival ([2]; doses of 1–10 mg/kg) | extension of the latency period for seizures ([2]; doses of 1–10 mg/kg, versus control) | activity against strychnine-induced seizures (in words) ([2]; ranking within the series)
COc1cc2c(cc1OC)C(c1cccc(Br)c1)NCC2 (centres unmarked) [Compound 14, 1-(3′-Bromophenyl)-6,7-dimethoxy-1,2,3,4-tetrahydroisoquinoline] | 446.7 (416.2 ± 471.3) mg/kg | 60% | 0.35 ± 0.8 min | 18.5 ± 1.5 min | 90% | 90–100% | comparable activity to the reference drugs | 2.5 ± 0.4 min | 2.8 ± 0.02 min | – | – | – | – | –
COc1cc2c(cc1OC)C(c1ccc(Br)cc1)NCC2 (centres unmarked) [Compound 15, 1-(4′-Bromophenyl)-6,7-dimethoxy-1,2,3,4-tetrahydroisoquinoline] | 422.0 (399.4 ± 445.3) mg/kg | 40% | 0.50 ± 0.5 min | 12.5 ± 1.2 min | 70% | – | – | 8.3 ± 0.3 min | 2.2 ± 0.07 min | no more than 40% | – | – | – | –
COc1cc2c(cc1OC)C(c1ccc(N(C)C)cc1)NCC2 (centres unmarked) [Compound 16, 1-(4′-Dimethylaminophenyl)-6,7-dimethoxy-1,2,3,4-tetrahydroisoquinoline] | 498.3 (471.6 ± 524.6) mg/kg | 50% | 0.31 ± 0.6 min | 13.1 ± 1.5 min | 90% | 90–100% | comparable activity to the reference drugs | 8.5 ± 0.7 min | 2.7 ± 0.08 min | – | – | – | – | –
COc1cc2c(cc1OC)C(c1cc(Br)ccc1O)NCC2 (centres unmarked) [Compound 17, 1-(2′-Hydroxy-5′-bromophenyl)-6,7-dimethoxy-1,2,3,4-tetrahydroisoquinoline] | 297.3 (270.2 ± 323.7) mg/kg | 40% | 0.61 ± 0.5 min | 15.7 ± 1.6 min | 70% | – | – | 8.1 ± 0.8 min | 2.1 ± 0.07 min | – | – | – | – | –
COc1cc2c(cc1OC)C(c1ccc(O)c(Br)c1)NCC2 (centres unmarked) [Compound 18, 1-(3′-Bromo-4′-hydroxyphenyl)-6,7-dimethoxy-1,2,3,4-tetrahydroisoquinoline] | 3850 mg/kg and 3793.8 (3395.8 ± 4088.1) mg/kg | 50% | 0.56 ± 0.6 min | 14.6 ± 1.5 min | 70% | – | – | 8.9 ± 0.9 min | 1.7 ± 0.04 min | – | – | – | – | –
COc1ccc(C2NCCc3cc(OC)c(OC)cc32)cc1Br (centres unmarked) [Compound 19, 1-(3′-Bromo-4′-methoxyphenyl)-6,7-dimethoxy-1,2,3,4-tetrahydroisoquinoline] | 327.9 (287.1 ± 363.8) mg/kg | 40% | 0.59 ± 0.9 min | 16.0 ± 1.4 min | 80% | – | – | 19.0 ± 0.8 min | 1.8 ± 0.07 min | – | – | – | – | –
COc1ccc(C2NCCc3cc(OC)c(OC)cc32)cc1O (centres unmarked) [Compound 20, 1-(3′-Hydroxy-4′-methoxyphenyl)-6,7-dimethoxy-1,2,3,4-tetrahydroisoquinoline] | 964.8 (916.5 ± 998.2) mg/kg | 90% | 0.63 ± 0.7 min | 18.2 ± 1.4 min | 70% | – | – | 11.0 ± 0.7 min | 2.8 ± 0.07 min | ~90% | minimal effect | 90% | 27–86% | most active; also recorded: highest activity
